This assay concerns Fusobacterium (Fusobacterium nucleatum subsp. nucleatum ATCC23726 and ATCC25586). As to the kind of experiment: Study of sterilization effect of quaternary ammonium salt sterilizer liquids (in water) on Fusobacterium, viable count after 30 seconds. It counts as cell-based. As to conditions: for sterilization effect on Fusobacterium (number of viable bacteria): component used singly as sterilizer liquid in water, 0.01-0.10%, 30 seconds contact. On the procedure:
The alkylpyridinium chlorides and benzyl alkyl dimethyl ammonium chlorides shown below were dissolved in water such that each component had each concentration (0.01%, 0.02%, 0.03%, 0.04%, 0.05%, 0.07%, or 0.10%), and the resulting products were used as sterilizer liquids. In the sterilizer liquids, the components were used singly or in combination. The concentration (%) of an alkylpyridinium chloride in the sterilizer liquids is expressed as w/v %; however, since the solvent is water, and the concentrations are relatively low, the value is almost the same as the value expressed as mass % (w/w %) and can be approximated. • Octylpyridinium chloride (OPC): R=(CH2)7CH3 in the following formula • Dodecylpyridnium chloride (DPC): R=(CH2)11CH3 in the following formula • Cetylpyridinium chloride (CPC): R=(CH2)15CH3 in the following formula
For test bacteria, the following two subspecies of Fusobacterium were used. • Bacteria 1: Fusobacterium nucleatum subsp. nucleatum ATCC23726 • Bacteria 2: Fusobacterium nucleatum subsp. nucleatum ATCC25586
The test bacteria were individually inoculated into 10 ml of GAM bouillon medium (Nissui Pharmaceutical Co., Ltd.) and incubated anaerobically at 37° C. for 2 days. The resulting culture media were used as test bacteria liquids.
The sterilizer liquids (200 μl) at different concentrations were each mixed with the test bacteria liquids (200 μl). Thirty seconds after the mixing, 100 μl of the mixture was collected, and 900 μl of drug inactivation PBS in which soy lecithin and Tween 80 were added to a final concentration of 0.07% and 0.5%, respectively, to phosphate-buffered saline (PBS) was added (the mixture was diluted 10-fold) to inactivate the sterilization properties of the sterilizers. Each mixture was serially diluted 10^1- to 10^7-fold with the drug inactivation PBS (serially diluted mixers).
100 μl each of the prepared serially diluted mixers was smeared on sheep blood agar media for CDC anaerobes (Becton, Dickinson and Company), cultured anaerobically at 37° C. for 3 days, and the number of viable bacteria was counted.
FIGS. 1, 2, and 3 show the results. In the graphs of these figures, the vertical axis represents log (the number of viable bacteria) CFU/ml, with the detection limit of this value being 2.
The concentrations of CPC, DPC, OPC, BKC12, BKC14, and BKC16 in these figures and the following figures represent the concentrations of these components prepared as sterilizer liquids.

As for `CCCCCCCCCCCC[N+](C)(C)Cc1ccccc1.[Cl-]` [BKC12, Benzyl dodecyl dimethyl ammonium chloride], the “sterilization effect on Fusobacterium (number of viable bacteria)” value (from here on “sterilization effect on Fusobacterium”) is on record as “showed a sterilization effect on Fusobacterium even at a relatively low concentration”.
Regarding `CCCCCCCCCCCCCC[N+](C)(C)Cc1ccccc1.[Cl-]` [BKC14, Benzyl tetradecyl dimethyl ammonium chloride], the “sterilization effect on Fusobacterium” value is given as “showed a sterilization effect on Fusobacterium even at a relatively low concentration”.
Still for that read-out and setting: with `CCCCCCCCCCCCCCCC[N+](C)(C)Cc1ccccc1.[Cl-]` [BKC16, Benzyl hexadecyl dimethyl ammonium chloride] the entry was “did not show a sterilization effect on Fusobacterium”.
As for `CCCCCCCCCCCCCCCC[n+]1ccccc1.[Cl-]` [CPC, Cetylpyridinium chloride], the “sterilization effect on Fusobacterium” value is “did not show a sterilization effect on Fusobacterium”. The “enhancement of the sterilization effect of BKC12 on Fusobacterium” value (CPC combined with BKC12 in the sterilizer liquid) is listed as “enhanced the sterilization effect of BKC14 or BKC12 on Fusobacterium”. Also, under “CPC combined with BKC14 in the sterilizer liquid”, the “enhancement of the sterilization effect of BKC14 on Fusobacterium” value is given as “enhanced the sterilization effect of BKC14 or BKC12 on Fusobacterium”. Besides, the “enhancement of the sterilization effect of DPC on Fusobacterium” value (CPC combined with DPC in the sterilizer liquid) is reported as “enhanced the sterilization effect of DPC on Fusobacterium”. Moreover, where the note is “cetylpyridinium chloride combined with the quaternary ammonium salt”, the “enhancement of the sterilization effect of a quaternary ammonium salt having a C10 to C14 alkyl group on Fusobacterium” value was “exhibits an effect of enhancing the sterilization effect of a quaternary ammonium salt having a C10 to C14 alkyl group on Fusobacterium”. Also, where the note is “listed as Cetylpyridinium chloride”, the “sterilization effect on Fusobacterium” value is “an efficient sterilization effect on Fusobacterium was not observed”. The “sterilization effect on Fusobacterium” value (listed as cetylpyridinium chloride) is recorded as “does not produce an efficient sterilization effect on Fusobacterium”.
On to `CCCCCCCCCCCC[n+]1ccccc1.[Cl-]` [DPC, Dodecylpyridnium chloride], for which the “sterilization effect on Fusobacterium” value is listed as “showed a sterilization effect on Fusobacterium even at a relatively low concentration”.
On to `CCCCCCCC[n+]1ccccc1.[Cl-]` [OPC, Octylpyridinium chloride], for which the “sterilization effect on Fusobacterium” value is given as “did not show a sterilization effect on Fusobacterium”.

The record behind these values is patent US12458578B2, “Composition for inhibiting plaque formation” (SUNSTAR SUISSE SA, priority 2020, dated 2025).
